According to publication PMC6006426, “Effect of tyrosine kinase inhibitors on renal handling of creatinine by MATE1” (Scientific Reports, 2018):
Where two headings read alike, the source gives them in different places.

Experiments:
[1] = Clinical plasma pharmacokinetic parameters of TKIs; type: in vivo, human; conditions: for Cmax,u: calculated unbound plasma concentration (Cmax x fu) from cited clinical parameters; for Ctrough,u: calculated unbound trough plasma concentration from cited clinical parameters
Source text: Table 2 Pharmacokinetic parameters and obtained IC50, Ki, and Kp,uu values of TKIs. | column: Cmax,u (μM) Ctrough,u (μM)

[2] = set-up: method as in earlier work; conditions: 34-43 (per drug), cited from earlier work; for t1/2: clinical half-life; for Cmax: maximum plasma concentration, clinical dosing: crizotinib 250 mg twice a day, gefitinib 250 mg, imatinib 400 mg, pazopanib 800 mg, sorafenib 400 mg, sunitinib 50 mg once a day; for Ctrough: trough plasma concentration, clinical dosing as in table footnote
human OCT2 = target: T1, human OCT2 (Homo sapiens, UniProt O15244); test: Inhibition of [14C]creatinine uptake by HEK293/OCT2 cells; type: cell-based; conditions: for IC50: 37 °C, pre/co-incubation, unit inferred, read-out: IC50 or Ki, OCT2
T1 construct: expressed in transfected cells; host or cells: HEK293
T1 sequence (O15244 1-555): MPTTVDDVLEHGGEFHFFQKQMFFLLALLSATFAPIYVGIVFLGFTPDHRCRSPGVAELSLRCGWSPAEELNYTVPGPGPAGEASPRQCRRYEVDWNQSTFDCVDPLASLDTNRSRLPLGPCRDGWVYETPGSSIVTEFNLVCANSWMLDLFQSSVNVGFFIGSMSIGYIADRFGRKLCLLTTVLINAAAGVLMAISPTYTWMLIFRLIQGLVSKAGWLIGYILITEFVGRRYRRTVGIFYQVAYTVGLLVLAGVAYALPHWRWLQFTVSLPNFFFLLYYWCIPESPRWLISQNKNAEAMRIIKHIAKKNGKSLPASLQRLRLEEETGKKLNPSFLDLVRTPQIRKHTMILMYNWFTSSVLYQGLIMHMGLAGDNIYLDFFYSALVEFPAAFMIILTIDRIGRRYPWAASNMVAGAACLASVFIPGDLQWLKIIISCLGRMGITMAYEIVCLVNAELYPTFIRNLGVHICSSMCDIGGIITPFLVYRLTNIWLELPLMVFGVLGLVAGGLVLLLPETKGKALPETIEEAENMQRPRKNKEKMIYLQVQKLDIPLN
Description: (§1) Cells were cultured in Dulbecco’s modified Eagle’s medium (DMEM) supplemented with 10% fetal bovine serum, 100 units/ml penicillin, 100 μg/ml streptomycin, 1 mM pyruvic acid, and 100 μg/ml zeocin for HEK293/OCT2 cells or 400 μg/mL G418 for HEK293/MATE1 and MDCKII/MATE1 cells at 37 °C in a humidified atmosphere of 5% CO2 in air.
The cells were incubated at 37 °C.
Experiments were conducted at least twice, and the results are shown as representative values in individual experiments. Uptake by transporter-expressing cells was expressed as the cell-to-medium (C/M) ratio (μL/mg protein), obtained by dividing the uptake amount by the concentration of substrate in the TM. MATE1- or OCT2-mediated uptake was obtained after subtraction of the uptake by mock cells.

[3] = Tissue accumulation (Kp,uu) of TKIs in rat kidney slices; type: in vitro ADME; conditions: male, Wistar, rat kidney slices (0.3 mm thick), pH 7.4, TKI 1 μM, 120 min, C/M ratio 37 °C / 4 °C, mean ± S.E.M. (n = 3 or 4)
Description: Male Wistar rats (180 ± 10 g body weight) were purchased from Japan SLC (Hamamatsu, Japan). Rats were housed three per cage with free access to commercial chow and tap water, and were maintained on a 12 h dark/light cycle in an air-controlled room (temperature, 24.0 ± 1 °C; humidity, 55 ± 5%).
Uptake study by rat kidney slices was carried out as described previously, with slight modifications. Whole kidneys of male rats were sliced (0.3 mm thick) with a microslicer (Zero 1; Dosaka EM, Kyoto, Japan). […] Three or four slices per rat, each weighing 5 to 20 mg, were randomly selected and pre-incubated in a 12-well plate with 2.0 ml/well of oxygenated transport buffer at 37 °C for 5 min. After pre-incubation, the kidney slices were placed in transport buffer containing TKIs to initiate the uptake reaction. After uptake at 37 °C for an appropriate time, each slice was rapidly removed from the transport buffer, washed twice in ice-cold transport buffer, blotted on filter paper and weighed. Non-specific adsorption of each substrate was estimated as the absorption on a slice incubated at 4 °C for 1 min. The tissue accumulation of TKIs was measured by liquid chromatography-tandem mass spectrometry (LC-MS/MS) as described below.
The unbound renal proximal tubule epithelial cell-to-medium concentration ratio (Kp,uu) based on the steady-state uptake at 37 °C and 4 °C was defined according to Eq. (4);4 Kp,uu=C/Mratioss,37 °C/C/Mratioss,4 °C
Kp,uu was calculated by dividing C/Mratioss,37 °C by the mean value of C/Mratioss,4 °C .

OCT2 and MATE1 = conditions: for Prediction of SCr increase, Cmax,u: based on Cmax,u (Kp,uu assumed 1), mean ± S.D. (n = 11 subjects' parameters from ref 10); for Prediction of SCr increase, Cmax,u · Kp,uu: based on Cmax,u with Kp,uu incorporated; for Prediction of SCr increase, Cmax,u · Kp,uu / Prediction of SCr increase, Ctrough,u / Prediction of SCr increase, Ctrough,u · Kp,uu: mean ± S.D. (n = 11); for Prediction of SCr increase, Ctrough,u: based on Ctrough,u (Kp,uu assumed 1); for Prediction of SCr increase, Ctrough,u · Kp,uu: based on Ctrough,u with Kp,uu incorporated
Source text: In this model, the intrinsic clearances of OCT2 and MATE1 were assumed to be equal. When MATE1 inhibition was predicted from the Cmax,u of drugs, Kp,uu was assumed to be 1.

creatinine transporters = conditions: cited from earlier work
[4] = patients treated with crizotinib, n = 38, 95% CI 21.3–[…]; cited from earlier work
[5] = set-up: method as in earlier work; conditions: unbound fraction in plasma; 34-43 (per drug); cited from earlier work
MATE2K = target: T2, MATE2K (Homo sapiens, UniProt Q86VL8); test: Uptake of MPP+ by HEK293/MATE2K and mock cells; type: cell-based
T2 construct: expressed in transfected cells; host or cells: HEK293
T2 sequence (Q86VL8 1-566 isoform Q86VL8-3): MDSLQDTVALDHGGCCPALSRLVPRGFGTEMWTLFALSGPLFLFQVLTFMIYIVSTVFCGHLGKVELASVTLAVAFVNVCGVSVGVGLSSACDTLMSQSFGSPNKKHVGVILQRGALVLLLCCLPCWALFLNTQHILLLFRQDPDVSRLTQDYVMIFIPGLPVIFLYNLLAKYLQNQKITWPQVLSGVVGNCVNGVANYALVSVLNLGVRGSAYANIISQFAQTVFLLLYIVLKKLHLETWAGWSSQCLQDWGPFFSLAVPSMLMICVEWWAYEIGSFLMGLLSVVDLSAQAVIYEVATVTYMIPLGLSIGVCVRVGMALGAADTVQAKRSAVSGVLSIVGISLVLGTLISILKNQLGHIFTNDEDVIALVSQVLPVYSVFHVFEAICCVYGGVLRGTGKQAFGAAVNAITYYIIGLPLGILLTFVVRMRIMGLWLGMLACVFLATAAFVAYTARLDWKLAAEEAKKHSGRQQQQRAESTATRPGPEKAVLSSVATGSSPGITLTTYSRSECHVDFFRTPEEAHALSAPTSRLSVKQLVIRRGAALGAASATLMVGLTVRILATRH
Description: The uptake experiment was conducted as described previously. HEK293 cells were plated at a density of 1.7 × 10^5 cells/cm^2 on 24-well plates and cultured for two days before uptake assay. The cells were pre-incubated with 0.5 ml of transport medium (TM) (125 mM NaCl, 4.8 mM KCl, 1.2 mM KH2PO4, 1.2 mM CaCl2, 1.2 mM MgSO4, 5.6 mM D-glucose, and 25 mM HEPES, pH 7.4) for an appropriate time at 37 °C. Cells for MATE1 assays were pre-incubated in TM containing 30 mM NH4Cl for 20 min to establish an outwardly directed H^+ gradient; this was done concomitantly with the pre-incubation with TKIs. […] Uptake was terminated by washing the cells three times with 0.5 ml of ice-cold TM, and the cells were solubilized in 0.25 ml of 0.01% (v/v) Triton-X. Radioactivity was measured with a liquid scintillation counter (Hitachi Aloka Medical, Ltd., Tokyo, Japan). […] Uptake was terminated by washing the cells three times with ice-cold TM, and intracellular [^14C]creatinine concentration was determined by the method described above.
Experiments were conducted at least twice, and the results are shown as representative values in individual experiments. Uptake by transporter-expressing cells was expressed as the cell-to-medium (C/M) ratio (μL/mg protein), obtained by dividing the uptake amount by the concentration of substrate in the TM. […]

human MATE1 = target: T3, human MATE1 (Homo sapiens, UniProt Q96FL8); test: Inhibition of [14C]creatinine uptake by HEK293/MATE1 cells; type: cell-based
T3 construct: expressed in transfected cells; host or cells: HEK293
T3 sequence (Q96FL8 1-570): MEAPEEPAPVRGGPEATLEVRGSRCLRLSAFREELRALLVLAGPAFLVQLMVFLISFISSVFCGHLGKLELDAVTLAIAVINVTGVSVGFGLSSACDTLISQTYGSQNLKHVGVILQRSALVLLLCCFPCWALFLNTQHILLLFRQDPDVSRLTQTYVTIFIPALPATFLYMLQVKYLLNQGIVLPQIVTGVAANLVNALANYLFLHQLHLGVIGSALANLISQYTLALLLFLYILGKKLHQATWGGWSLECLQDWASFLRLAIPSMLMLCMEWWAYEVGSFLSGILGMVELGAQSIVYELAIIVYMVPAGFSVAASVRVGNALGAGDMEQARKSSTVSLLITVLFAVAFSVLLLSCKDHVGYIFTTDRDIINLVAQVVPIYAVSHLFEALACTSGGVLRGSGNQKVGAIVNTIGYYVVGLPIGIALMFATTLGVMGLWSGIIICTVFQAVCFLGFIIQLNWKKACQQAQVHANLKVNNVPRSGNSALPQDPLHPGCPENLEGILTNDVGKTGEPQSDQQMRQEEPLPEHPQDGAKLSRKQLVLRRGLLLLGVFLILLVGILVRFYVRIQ
Description: as §1
The cells were incubated at 37 °C.
Uptake by transporter-expressing cells was expressed as the cell-to-medium (C/M) ratio (μL/mg protein), obtained by dividing the uptake amount by the concentration of substrate in the TM. MATE1- or OCT2-mediated uptake was obtained after subtraction of the uptake by mock cells.
Kinetic parameters for uptake were obtained using the Michaelis-Menten Eq. (2);2 v=Vmax×[C]/Km+[C] where v, Vmax, Km, and [C] are initial uptake rate, maximal uptake rate, Michaelis constant, and substrate concentration, respectively.

Structure (SMILES) | Cmax,u [1] [nM] | t1/2 [2] [h] | Cmax [2] [nM] | Ctrough [2] [nM] | Kp uu at 2 h, 1 μM [3] | Prediction of SCr increase, Cmax,u (OCT2 and MATE1) [%] | Prediction of SCr increase, Cmax,u · Kp,uu (OCT2 and MATE1) [%] | Prediction of SCr increase, Ctrough,u (OCT2 and MATE1) [%] | Prediction of SCr increase, Ctrough,u · Kp,uu (OCT2 and MATE1) [%] | fu [5] | other results
CCN(CC)CCNC(=O)c1c(C)[nH]c(/C=C2\C(=O)Nc3ccc(F)cc32)c1C [Sunitinib, sunitinib] | 6.8 | 40 to 60 | 136 | 82.9 | 3.93 ± 0.15 | 1.65 ± 0.92 | 2.73 ± 1.10 | 1.19 ± 0.87 | 1.86 ± 0.95 | – | Ctrough,u [1]: 4.14 nM; IC50 (human OCT2; [14C]creatinine 2.6 μM, 1 min): 0.266 ± 0.03 µM
COc1c(N2CC[C@@H](C3(N)CC3)C2)ccc2c(=O)c(C(=O)O)cn([C@@H]3C[C@@H]3F)c12 [DX-619] | – | – | – | – | – | – | – | – | – | – | Reduction of creatinine clearance (creatinine transporters): up to 51.4%
C[C@@H](Oc1cc(-c2cnn(C3CCNCC3)c2)cnc1N)c1c(Cl)ccc(F)c1Cl [Crizotinib, crizotinib] | 84.8 | – | – | 708 | – | 14.5 ± 4.6 | 25.3 ± 8.8 | 11.7 ± 3.6 | 21.1 ± 7.1 | 0.093 | Ctrough,u [1]: 65.8 nM; Clinically reported eGFR reduction [4]: 23.9%; Prediction of SCr increase, Cmax,u (OCT2 and MATE1; listed as crizotinib): 14.5%; Prediction of SCr increase, Cmax,u · Kp,uu (OCT2 and MATE1; listed as crizotinib): 25.3%; Predicted increase of SCr in the clinical context (OCT2 and MATE1; summary statement of the prediction): more than 10%
COc1cc2ncnc(Nc3ccc(F)c(Cl)c3)c2cc1OCCCN1CCOCC1 [Gefitinib, gefitinib] | 93.6 | 23.8 | 1040 | – | 2.22 ± 0.05 | 2.47 ± 1.05 | – | – | – | 0.09 | –
CC(=O)[O-].C[n+]1ccc(-c2ccccc2)cc1 [MPP^+, N-methyl-4-phenylpyridinium acetate] | – | – | – | – | – | – | – | – | – | – | Uptake of MPP+ by HEK293/MATE2K cells (MATE2K; HEK293/MATE2K cells): 19.1 μL/mg/1 min; Uptake of MPP+ by mock cells (MATE2K; mock cells): 5.76 μL/mg/1 min
CNC(=O)c1cc(Oc2ccc(NC(=O)Nc3ccc(Cl)c(C(F)(F)F)c3)cc2)ccn1 [Sorafenib, sorafenib] | – | 28.1 | 14600 | – | 2.76 ± 0.27 | 1.47 ± 0.90 | 3.10 ± 1.17 | – | – | 0.0029 | IC50 (human OCT2; [14C]creatinine 2.6 μM, 1 min): 40.8 ± 9.3 µM
Cc1ccc(NC(=O)c2ccc(CN3CCN(C)CC3)cc2)cc1Nc1nccc(-c2cccnc2)n1 [Imatinib, imatinib] | – | – | – | – | 2.39 ± 0.29 | – | – | – | – | – | –
Cc1ccc(Nc2nccc(N(C)c3ccc4c(C)n(C)nc4c3)n2)cc1S(N)(=O)=O [Pazopanib, pazopanib] | 10.1 | 30.9 | 95100 | 50600 | 2.05 ± 0.14 | 1.16 ± 0.87 | 1.86 ± 0.95 | 0.837 ± 0.842 | 1.22 ± 0.87 | 0.000106 | IC50 (human MATE1; [14C]creatinine 2.6 μM, 2 min, 37 °C, pre/co-incubation, unit inferred, read-out: IC50 or Ki, MATE1): 0.47 ± 0.032 µM; Ctrough/IC50 or Ki, MATE1 (human MATE1; ratio of trough (unbound) concentration to IC50 or Ki for MATE1): 0.0114; Inhibition of [14C]creatinine uptake by HEK293/OCT2 cells (in words) (human OCT2; pazopanib 1, 3, 10, 30 μM, [14C]creatinine 2.6 μM, 1 min): not by pazopanib; Ctrough/IC50 or Ki, OCT2 (human OCT2; ratio of trough (unbound) concentration to IC50 or Ki for OCT2): 0.0000386
